Experimental data: patent US10028960B2, “Pyrimidine compounds as JAK kinase inhibitors” (THERAVANCE BIOPHARMA R&D IP, LLC, priority 2016, dated 2018)

What was measured:
[1] = biological target: JAK3 (Homo sapiens (Human), UniProt P52333); assay: LanthaScreen JAK biochemical assay, JAK3
Protocol: (§1) A panel of four LanthaScreen JAK biochemical assays (JAK1, 2, 3 and Tyk2) were carried in a common kinase reaction buffer (50 mM HEPES, pH 7.5, 0.01% Brij-35, 10 mM MgCl2, and 1 mM EGTA). Recombinant GST-tagged JAK enzymes and a GFP-tagged STAT1 peptide substrate were obtained from Life Technologies.

[2] = biological target: JAK2 (Homo sapiens (Human), UniProt O60674); assay: LanthaScreen JAK biochemical assay, JAK2
Sequence of JAK2 (O60674 whole entry): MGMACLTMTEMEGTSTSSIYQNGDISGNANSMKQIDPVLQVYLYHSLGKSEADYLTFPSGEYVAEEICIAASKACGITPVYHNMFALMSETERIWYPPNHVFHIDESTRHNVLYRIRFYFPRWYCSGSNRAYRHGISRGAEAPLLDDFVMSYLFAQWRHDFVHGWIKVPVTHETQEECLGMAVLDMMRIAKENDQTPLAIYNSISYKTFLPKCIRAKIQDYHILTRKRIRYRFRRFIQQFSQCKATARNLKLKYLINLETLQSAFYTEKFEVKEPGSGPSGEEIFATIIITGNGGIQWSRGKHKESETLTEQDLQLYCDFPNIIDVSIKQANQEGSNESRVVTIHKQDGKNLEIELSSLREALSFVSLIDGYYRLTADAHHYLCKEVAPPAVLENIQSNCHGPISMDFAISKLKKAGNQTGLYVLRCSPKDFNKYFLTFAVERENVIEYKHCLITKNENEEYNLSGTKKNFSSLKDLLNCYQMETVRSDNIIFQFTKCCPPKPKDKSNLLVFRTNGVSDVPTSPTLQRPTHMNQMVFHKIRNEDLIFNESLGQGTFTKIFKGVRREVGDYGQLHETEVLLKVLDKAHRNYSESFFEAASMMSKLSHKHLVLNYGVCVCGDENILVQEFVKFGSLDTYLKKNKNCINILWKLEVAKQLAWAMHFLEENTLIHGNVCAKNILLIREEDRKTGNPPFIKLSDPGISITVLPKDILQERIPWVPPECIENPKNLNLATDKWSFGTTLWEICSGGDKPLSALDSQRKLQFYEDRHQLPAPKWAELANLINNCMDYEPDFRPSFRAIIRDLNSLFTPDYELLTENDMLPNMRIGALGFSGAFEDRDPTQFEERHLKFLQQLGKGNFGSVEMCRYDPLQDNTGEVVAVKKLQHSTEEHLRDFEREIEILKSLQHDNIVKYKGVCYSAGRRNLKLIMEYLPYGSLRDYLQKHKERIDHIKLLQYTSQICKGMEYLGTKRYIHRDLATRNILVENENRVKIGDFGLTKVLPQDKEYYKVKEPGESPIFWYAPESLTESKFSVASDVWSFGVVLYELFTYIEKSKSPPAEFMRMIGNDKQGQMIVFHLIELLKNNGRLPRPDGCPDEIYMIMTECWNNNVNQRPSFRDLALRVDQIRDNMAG
Protocol: as §1

[3] = biological target: JAK1 (Homo sapiens (Human), UniProt P23458); assay: LanthaScreen JAK biochemical assay, JAK1
Sequence of JAK1 (P23458 whole entry): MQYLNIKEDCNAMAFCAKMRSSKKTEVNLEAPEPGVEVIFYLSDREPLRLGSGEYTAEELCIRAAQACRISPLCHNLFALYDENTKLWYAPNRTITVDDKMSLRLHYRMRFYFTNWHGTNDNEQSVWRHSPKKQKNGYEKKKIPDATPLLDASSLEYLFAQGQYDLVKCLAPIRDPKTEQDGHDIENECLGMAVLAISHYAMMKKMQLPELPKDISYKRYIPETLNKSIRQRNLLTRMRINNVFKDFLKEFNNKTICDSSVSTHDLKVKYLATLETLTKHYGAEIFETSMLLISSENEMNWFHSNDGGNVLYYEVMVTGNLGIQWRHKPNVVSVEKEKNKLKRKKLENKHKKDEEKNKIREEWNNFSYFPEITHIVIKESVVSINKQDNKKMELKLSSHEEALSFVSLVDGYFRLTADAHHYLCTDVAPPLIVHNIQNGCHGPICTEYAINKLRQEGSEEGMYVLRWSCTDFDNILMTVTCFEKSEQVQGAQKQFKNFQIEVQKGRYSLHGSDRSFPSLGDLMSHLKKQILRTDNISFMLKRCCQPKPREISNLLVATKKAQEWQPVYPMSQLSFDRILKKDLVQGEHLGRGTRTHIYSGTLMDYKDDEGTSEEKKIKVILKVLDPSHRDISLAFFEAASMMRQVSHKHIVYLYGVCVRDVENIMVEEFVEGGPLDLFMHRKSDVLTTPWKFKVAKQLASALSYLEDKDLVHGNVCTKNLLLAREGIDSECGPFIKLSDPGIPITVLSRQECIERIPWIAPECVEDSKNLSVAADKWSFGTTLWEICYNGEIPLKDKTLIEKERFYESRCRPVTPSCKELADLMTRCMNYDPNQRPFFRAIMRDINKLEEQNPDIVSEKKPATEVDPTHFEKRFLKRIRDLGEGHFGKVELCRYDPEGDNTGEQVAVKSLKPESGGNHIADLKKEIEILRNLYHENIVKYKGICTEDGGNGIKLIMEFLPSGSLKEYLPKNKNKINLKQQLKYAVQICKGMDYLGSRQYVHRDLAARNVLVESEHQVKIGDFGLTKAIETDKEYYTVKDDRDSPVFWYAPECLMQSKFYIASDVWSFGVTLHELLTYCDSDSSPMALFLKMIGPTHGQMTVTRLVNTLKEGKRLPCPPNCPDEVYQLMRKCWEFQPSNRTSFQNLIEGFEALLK
Protocol: as §1

[4] = biological target: Tyk2 (Homo sapiens (Human), UniProt P29597); assay: LanthaScreen JAK biochemical assay, Tyk2
Sequence of Tyk2 (P29597 whole entry): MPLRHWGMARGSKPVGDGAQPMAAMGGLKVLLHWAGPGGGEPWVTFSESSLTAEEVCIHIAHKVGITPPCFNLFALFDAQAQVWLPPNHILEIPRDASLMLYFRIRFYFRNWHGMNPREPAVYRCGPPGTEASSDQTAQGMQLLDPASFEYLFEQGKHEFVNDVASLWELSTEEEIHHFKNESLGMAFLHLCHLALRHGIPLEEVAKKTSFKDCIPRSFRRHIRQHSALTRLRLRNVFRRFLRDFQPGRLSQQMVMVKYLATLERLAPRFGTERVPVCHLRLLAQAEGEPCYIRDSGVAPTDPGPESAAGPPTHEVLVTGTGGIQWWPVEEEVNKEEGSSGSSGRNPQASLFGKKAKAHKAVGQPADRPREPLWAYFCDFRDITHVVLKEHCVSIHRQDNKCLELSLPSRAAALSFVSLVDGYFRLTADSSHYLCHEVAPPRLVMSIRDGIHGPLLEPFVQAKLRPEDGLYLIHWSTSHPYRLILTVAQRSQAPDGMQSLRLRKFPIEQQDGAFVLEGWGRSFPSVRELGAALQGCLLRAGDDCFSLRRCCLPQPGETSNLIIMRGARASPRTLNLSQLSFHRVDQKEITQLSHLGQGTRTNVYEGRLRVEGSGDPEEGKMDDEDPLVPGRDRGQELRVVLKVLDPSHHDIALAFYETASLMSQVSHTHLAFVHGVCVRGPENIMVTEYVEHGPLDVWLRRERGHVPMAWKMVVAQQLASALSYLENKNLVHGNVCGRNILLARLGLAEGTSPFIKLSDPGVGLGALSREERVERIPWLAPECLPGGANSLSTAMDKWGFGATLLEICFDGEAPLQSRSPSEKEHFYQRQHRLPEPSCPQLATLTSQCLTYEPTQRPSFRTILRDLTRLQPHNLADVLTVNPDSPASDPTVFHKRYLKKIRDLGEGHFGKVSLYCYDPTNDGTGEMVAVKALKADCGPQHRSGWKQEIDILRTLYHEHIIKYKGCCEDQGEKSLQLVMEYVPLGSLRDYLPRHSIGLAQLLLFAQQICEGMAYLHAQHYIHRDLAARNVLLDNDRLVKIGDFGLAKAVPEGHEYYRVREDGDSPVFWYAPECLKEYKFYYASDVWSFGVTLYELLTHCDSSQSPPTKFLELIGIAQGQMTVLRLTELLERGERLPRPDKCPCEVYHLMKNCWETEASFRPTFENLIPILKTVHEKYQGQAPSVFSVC
Protocol: as §1

[5] = test system: IL-13 induced STAT6 phosphorylation in HT-29 human colorectal adenocarcinoma cells; assay: Cellular JAK potency assay: inhibition of IL-13 induced STAT6 phosphorylation; format: cell-based; settings: IL-13 induced STAT6 phosphorylation, HT-29 cells
Protocol: The potency of test compounds for inhibition of the JAK-dependent cytokine interleuken-13 (IL-13) was assessed by measuring IL-13 (IL-13, R&D Systems) induced STAT6 phosphorylation in HT-29 human colorectal adenocarcinoma cells (ATCC).
The anti-STAT6 antibody (Cell Signaling Technologies) was conjugated to AlphaScreen acceptor beads (Perkin Elmer), while the anti-pSTAT6 (pTyr641) antibody (Cell Signaling Technologies) was biotinylated using EZ-Link Sulfo-NHS-Biotin (Thermo Scientific).
HT-29 cells were grown at 37° C. in a 5% CO2 humidified incubator in McCoy's 5a Modified medium (ATCC) supplemented with 10% FBS (Hyclone), 100 U/mL penicillin, 100 μg/mL streptomycin (Life Technologies), and 2 mM GlutaMAX (Life Technologies). On day 1 of the assay, cells were seeded at a 7,500 cells/well density in white poly-D-lysine-coated 384-well plates (Corning) with 25 μL medium, and were allowed to adhere overnight in the incubator. On day 2 of the assay, the medium was removed and replaced with 12 μL of assay buffer (Hank's Balanced Salt Solution/HBSS, 25 mM HEPES, and 1 mg/ml bovine serum albumin/BSA) containing dose-responses of test compounds. Compounds were serially diluted in DMSO and then diluted another 1000-fold in media to bring the final DMSO concentration to 0.1%. Cells were incubated with test compounds at 37° C. for 1 h, and followed by the addition of 12 μL of pre-warmed IL-13 (12 ng/ml in assay buffer) for stimulation. After incubating at 37° C. for 30 min, the assay buffer (containing compound and IL-13) was removed, and 10 μL of cell lysis buffer (25 mM HEPES, 0.1% SDS, 1% NP-40, 5 mM MgCl2, 1.3 mM EDTA, 1 mM EGTA, and supplement with Complete Ultra mini protease inhibitors and PhosSTOP from Roche Diagnostics). The plates were shaken at ambient temperature for 30 min before the addition of detection reagents. A mixture of biotin-anti-pSTAT6 and anti-STAT6 conjugated acceptor beads was added first and incubated at ambient temperature for 2 h, followed by the addition of streptavidin conjugated donor beads (Perkin Elmer). After a minimum of 2 h incubation, the assay plates were read on the EnVision plate reader.
Results were expressed as the negative logarithm of the IC50 value, pIC50.

Sequence of JAK3 (P52333 whole entry): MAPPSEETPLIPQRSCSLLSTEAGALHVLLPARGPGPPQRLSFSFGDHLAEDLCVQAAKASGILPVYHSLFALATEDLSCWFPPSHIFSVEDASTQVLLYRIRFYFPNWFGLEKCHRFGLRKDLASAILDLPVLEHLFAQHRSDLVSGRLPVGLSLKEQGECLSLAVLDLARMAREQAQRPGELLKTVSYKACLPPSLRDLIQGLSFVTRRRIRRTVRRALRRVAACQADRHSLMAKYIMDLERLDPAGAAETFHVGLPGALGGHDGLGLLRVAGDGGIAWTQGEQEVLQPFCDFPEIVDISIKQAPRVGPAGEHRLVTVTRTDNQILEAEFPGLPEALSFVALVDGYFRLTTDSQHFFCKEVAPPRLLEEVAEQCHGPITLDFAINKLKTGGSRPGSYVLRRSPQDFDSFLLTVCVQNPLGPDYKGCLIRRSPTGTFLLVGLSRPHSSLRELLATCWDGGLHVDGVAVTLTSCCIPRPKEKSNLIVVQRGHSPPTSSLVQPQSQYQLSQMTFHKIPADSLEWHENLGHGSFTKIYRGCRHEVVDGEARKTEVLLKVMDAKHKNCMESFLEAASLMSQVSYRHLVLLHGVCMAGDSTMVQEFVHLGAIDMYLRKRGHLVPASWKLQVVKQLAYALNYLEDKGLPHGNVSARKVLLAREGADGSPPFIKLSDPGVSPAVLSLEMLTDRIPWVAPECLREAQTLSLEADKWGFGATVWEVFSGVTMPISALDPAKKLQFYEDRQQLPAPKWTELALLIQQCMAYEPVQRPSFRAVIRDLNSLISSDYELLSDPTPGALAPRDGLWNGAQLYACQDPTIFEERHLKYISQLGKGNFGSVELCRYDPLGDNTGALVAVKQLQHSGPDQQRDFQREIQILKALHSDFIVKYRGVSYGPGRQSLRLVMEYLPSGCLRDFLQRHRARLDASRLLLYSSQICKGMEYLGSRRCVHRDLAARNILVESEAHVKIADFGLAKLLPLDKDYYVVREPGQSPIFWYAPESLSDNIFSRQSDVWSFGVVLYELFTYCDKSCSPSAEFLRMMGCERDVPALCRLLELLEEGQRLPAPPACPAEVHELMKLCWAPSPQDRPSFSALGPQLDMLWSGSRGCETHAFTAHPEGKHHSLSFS

| SMILES | JAK 3 (pKi) [1] | JAK 2 (pKi) [2] | JAK 1 (pKi) [3] | Tyk 2 (pKi) [4] | HT-29 (pIC50) [5] |
| --- | --- | --- | --- | --- | --- |
| COc1cc(Nc2cc(CO)[nH]n2)nc(N(C)[C@@H]2C[C@H]3CCC[C@@H](C2)N3S(=O)(=O)CCC#N)n1 [Example 1-12, 3-(((1R,3s,5S)-3-((4-((5-(hydroxymethyl)-1H-pyrazol-3-yl)amino)-6-methoxypyrimidin-2-yl)(methyl)amino)-9-azabicyclo[3.3.1]nonan-9-yl)-sulfonyl)propanenitrile] | C (C represents a pKi value between 8 and 9 (Ki between 10 nM and 1 nM)) | B (B represents a pKi value between 9 and 10 (Ki between 1 nM and 0.1 nM)) | B (B represents a pKi value between 9 and 10 (Ki between 1 nM and 0.1 nM)) | B (B represents a pKi value between 9 and 10 (Ki between 1 nM and 0.1 nM)) |  |
| COc1cc(Nc2cc(CO)[nH]n2)nc(N[C@@H]2C[C@H]3CC[C@@H](C2)N3Cc2ccncc2)n1 [Example 2-1] |  |  | C (C represents a pKi value between 8 and 9 (Ki between 10 nM and 1 nM)) |  | C (C represents a pIC50 value between 6 and 6.7 (IC50 between 1 μM and 200 nM)) |
| COc1cc(Nc2cc(CO)[nH]n2)nc(N[C@@H]2C[C@H]3CCC[C@@H](C2)N3Cc2ccncc2)n1 [Example 2-2] |  |  | B (B represents a pKi value between 9 and 10 (Ki between 1 nM and 0.1 nM)) |  | B (B represents a pIC50 value between 6.7 and 7.5 (IC50 between 200 nM and 32 nM)) |
| COc1cc(Nc2cc(CO)[nH]n2)nc(N[C@@H]2C[C@H]3CCC[C@@H](C2)N3Cc2ccnc(C#N)c2)n1 [Example 2-3, 4-(((1R,3s,5S)-3-((4-((5-(hydroxymethyl)-1H-pyrazol-3-yl)amino)-6-methoxypyrimidin-2-yl)amino)-9-azabicyclo[3.3.1]nonan-9-yl)methyl)picolinonitrile] |  |  | B (B represents a pKi value between 9 and 10 (Ki between 1 nM and 0.1 nM)) |  | B (B represents a pIC50 value between 6.7 and 7.5 (IC50 between 200 nM and 32 nM)) |
| COc1cc(Nc2cc(CO)[nH]n2)nc(N[C@@H]2C[C@H]3CCC[C@@H](C2)N3Cc2cccnc2)n1 [Example 2-4, (3-((6-methoxy-2-(((1R,3s,5S)-9-(pyridin-3-ylmethyl)-9-azabicyclo[3.3.1]nonan-3-yl)amino)pyrimidin-4-yl)amino)-1H-pyrazol-5-yl)methanol] |  |  | B (B represents a pKi value between 9 and 10 (Ki between 1 nM and 0.1 nM)) |  | B (B represents a pIC50 value between 6.7 and 7.5 (IC50 between 200 nM and 32 nM)) |
| COc1cc(Nc2cc(CO)[nH]n2)nc(N(C)[C@@H]2C[C@H]3CCC[C@@H](C2)N3Cc2ccncc2)n1 [Example 2-7, (3-((6-methoxy-2-(methyl((1R,3s,5S)-9-(pyridin-4-ylmethyl)-9-azabicyclo[3.3.1]nonan-3-yl)amino)pyrimidin-4-yl)amino)-1H-pyrazol-5-yl)methanol] |  |  | B (B represents a pKi value between 9 and 10 (Ki between 1 nM and 0.1 nM)) |  | B (B represents a pIC50 value between 6.7 and 7.5 (IC50 between 200 nM and 32 nM)) |
| COc1cc(Nc2cc(CO)[nH]n2)nc(N(C)[C@@H]2C[C@H]3CCC[C@@H](C2)N3Cc2ccnc(C#N)c2)n1 [Example 2-8, 4-(((1R,3s,5S)-3-((4-((5-(hydroxymethyl)-1H-pyrazol-3-yl)amino)-6-methoxypyrimidin-2-yl)(methyl)amino)-9-azabicyclo[3.3.1]nonan-9-yl)methyl)picolinonitrile] |  |  | B (B represents a pKi value between 9 and 10 (Ki between 1 nM and 0.1 nM)) |  | B (B represents a pIC50 value between 6.7 and 7.5 (IC50 between 200 nM and 32 nM)) |
| COc1cc(Nc2cc(CO)[nH]n2)nc(N(C)[C@@H]2C[C@H]3CCC[C@@H](C2)N3C(=O)OCC(C)C)n1 [Example 3-2, isobutyl (1R,3s,5S)-3-((4-((5-(hydroxymethyl)-1H-pyrazol-3-yl)amino)-6-methoxypyrimidin-2-yl)(methyl)amino)-9-azabicyclo[3.3.1]nonane-9-carboxylate] |  | B (B represents a pKi value between 9 and 10 (Ki between 1 nM and 0.1 nM)) | B (B represents a pKi value between 9 and 10 (Ki between 1 nM and 0.1 nM)) | B (B represents a pKi value between 9 and 10 (Ki between 1 nM and 0.1 nM)) |  |
| COC(=O)N1[C@@H]2CCC[C@H]1C[C@H](N(C)c1nc(Nc3cc(CO)[nH]n3)cc(OC)n1)C2 [Example 3-3, methyl (1R,3s,5S)-3-((4-((5-(hydroxymethyl)-1H-pyrazol-3-yl)amino)-6-methoxypyrimidin-2-yl)(methyl)amino)-9-azabicyclo[3.3.1]nonane-9-carboxylate] |  | B (B represents a pKi value between 9 and 10 (Ki between 1 nM and 0.1 nM)) | B (B represents a pKi value between 9 and 10 (Ki between 1 nM and 0.1 nM)) | C (C represents a pKi value between 8 and 9 (Ki between 10 nM and 1 nM)) |  |
| COc1cc(Nc2cc(CO)[nH]n2)nc(N(C)[C@@H]2C[C@H]3CCC[C@@H](C2)N3C(=O)N2CCOCC2)n1 [Example 3-4, ((1R,3s,5S)-3-((4-((5-(hydroxymethyl)-1H-pyrazol-3-yl)amino)-6-methoxy-pyrimidin-2-yl)(methyl)amino)-9-azabicyclo[3.3.1]nonan-9-yl)(morpholino)methanone] |  | B (B represents a pKi value between 9 and 10 (Ki between 1 nM and 0.1 nM)) | B (B represents a pKi value between 9 and 10 (Ki between 1 nM and 0.1 nM)) | B (B represents a pKi value between 9 and 10 (Ki between 1 nM and 0.1 nM)) |  |
| COc1cc(Nc2cc(CO)[nH]n2)nc(N(C)[C@@H]2C[C@H]3CCC[C@@H](C2)N3C(=O)CC2CC2)n1 [Example 3-5, 2-cyclopropyl-1-((1R,3s,5S)-3-((4-((5-(hydroxymethyl)-1H-pyrazol-3-yl)amino)-6-methoxypyrimidin-2-yl)(methyl)amino)-9-azabicyclo[3.3.1]nonan-9-yl)ethan-1-one] |  | B (B represents a pKi value between 9 and 10 (Ki between 1 nM and 0.1 nM)) | B (B represents a pKi value between 9 and 10 (Ki between 1 nM and 0.1 nM)) | B (B represents a pKi value between 9 and 10 (Ki between 1 nM and 0.1 nM)) |  |
| COc1cc(Nc2cc(CO)[nH]n2)nc(N(C)[C@@H]2C[C@H]3CCC[C@@H](C2)N3C(C)=O)n1 [Example 3-6] |  | B (B represents a pKi value between 9 and 10 (Ki between 1 nM and 0.1 nM)) | B (B represents a pKi value between 9 and 10 (Ki between 1 nM and 0.1 nM)) | C (C represents a pKi value between 8 and 9 (Ki between 10 nM and 1 nM)) |  |
| COc1cc(Nc2cc(CO)[nH]n2)nc(N(C)[C@@H]2C[C@H]3CCC[C@@H](C2)N3C(=O)C2CCCC2)n1 [Example 3-7, cyclopentyl((1R,3s,5S)-3-((4-((5-(hydroxymethyl)-1H-pyrazol-3-yl)amino)-6-methoxypyrimidin-2-yl)(methyl)amino)-9-azabicyclo[3.3.1]nonan-9-yl)methanone] |  | B (B represents a pKi value between 9 and 10 (Ki between 1 nM and 0.1 nM)) | B (B represents a pKi value between 9 and 10 (Ki between 1 nM and 0.1 nM)) | B (B represents a pKi value between 9 and 10 (Ki between 1 nM and 0.1 nM)) |  |
| COc1cc(Nc2cc(CO)[nH]n2)nc(N(C)[C@@H]2C[C@H]3CCC[C@@H](C2)N3C(=O)C2CCC2)n1 [Example 3-8, cyclobutyl((1R,3s,5S)-3-((4-((5-(hydroxymethyl)-1H-pyrazol-3-yl)amino)-6-methoxypyrimidin-2-yl)(methyl)amino)-9-azabicyclo[3.3.1]nonan-9-yl)methanone] |  | B (B represents a pKi value between 9 and 10 (Ki between 1 nM and 0.1 nM)) | B (B represents a pKi value between 9 and 10 (Ki between 1 nM and 0.1 nM)) | B (B represents a pKi value between 9 and 10 (Ki between 1 nM and 0.1 nM)) |  |
